Legend:
Type in all cases: cell-based
[1] = system: ketoconazole-resistant Candida albicans ATCC 64124; test: Planktonic growth, absorbance at 600 nm; settings: YPD broth; ketoconazole 100 μg/ml; versus control
Protocol: ATCC strain 64124 was maintained at 4° C. on yeast extract peptone dextrose (YPD) (BD™ Difco™) agar plates. Planktonic yeast cultures (seed inoculums) were initiated in 5 ml of YPD broth (BD™ Difco™) from a single colony of the yeast strain. Cells were incubated at 28° C., under shaker conditions (200 rpm) for 24 h, followed by initiation of master inoculums for respective experiments in 5 ml YPD broth (OD600nm ˜0.15). Yeast cells were incubated at 27° C. for all assays, except for hyphal transition experiments. For all assays, ketoconazole (Sigma Aldrich) was used at a final concentration of 100 μg/ml (dissolved in 100% methanol, stored at −20° C.).
The FDA-approved wireless electroceutical dressing (WED) Procellera (Ag—Zn dressing) (Vomaris Innovations Inc.) was the source of electric fields for treating C. albicans cells. This dressing has alternating circular regions of silver and zinc dots placed in proximity of 1 mm to each other generating electric fields in the range of 0.6-0.9 V (Banerjee et al., 2014; Banerjee et al., 2015). […] The effect of wound dressings on planktonic growth was assessed by culturing C. albicans in sterile 15 ml round bottom polypropylene tubes with 5 ml YPD broth in the presence of dressings. […] Post incubation for respective time intervals, 1 ml aliquots were taken from all groups and optical density (absorbance) was measured on a spectrophotometer at 600 nm.

[2] = system: ketoconazole-resistant Candida albicans ATCC 64124; test: Agar lawn assay with embedded dressings; settings: in words
Protocol: (§1) An agar lawn assay assessed fungicidal activity. Dressings (2′×2′) were moistened with sterile YPD broth and placed in empty Petri plates with the conducting side of the dressing facing up. One milliliter of log phase C. albicans cells (1×10^8 cells) was thoroughly mixed in sterile molten YPD agar (9 ml) and poured evenly in plates with dressings. […] Plate images were captured and the area of growth inhibition in these plates was calculated with ImageJ software. Metabolic state was assessed by FUN1 staining. […] Post treatments with electroceutical dressings, an aliquot of yeast cells (1×10^8) was taken and washed with 1 ml of 1X PBS followed by treatment with 100 μl FUN®1 (1:1000; freshly diluted in 1X PBS) for 40 min in dark condition. Cells were then washed once with 1 ml of 1X PBS followed by counter staining with 100 μl Calcofluor White (25 μg/ml) for 10 min in dark conditions. Post counter staining cells were again washed with 1 ml 1X PBS, an aliquot of cells was trapped between a cover glass and glass slide and observed at 63X. Images captured at this magnification were analyzed using ZEN blue software to calculate the ratio of red and green fluorescence intensities for two regions of interest (ROI) per image (10 ROIs per group per technical replicate). Three technical replicates were assayed for each experimental group; six biological replicates.

[3] = system: ketoconazole-resistant Candida albicans ATCC 64124; test: Metabolic state by FUN1 staining; settings: in words
Protocol: as §1

[4] = system: ketoconazole-resistant Candida albicans ATCC 64124; test: Cell membrane potential changes, DiBAC4(3)/PI staining, flow cytometry; settings: in words; flow cytometry and microscopy
Protocol: Cell membrane potential changes were assessed by DiBAC4(3) staining. Candida albicans cells were cultured in liquid media (YPD broth), with or without dressings or ketoconazole. At respective time intervals, an aliquot of cells (1×10^8) was taken and washed with 1 ml 1X PBS followed by treatment with either 200 μl 10 μM DiBAC4(3) [Bis-(1,3-dibutylbarbituric acid) trimethine oxonol] (Anaspec) [for DiBAC4(3) single stained controls] or 10 μM propidium iodide (Sigma Aldrich) [for PI single stained controls] or a combination of both stains. Heat-killed cells (1×10^8; treated at 100° C. for 30 min) and cells treated with Amphotericin B (3 μg/ml) (Sigma
Aldrich) for 6 h were used as controls for dual stain positive and DiBAC4(3) only positive cells, respectively.
Post staining, cells were washed with 1XPBS followed by flow cytometry (with FL1-FITC for DiBAC4(3) and FL2-PE filter for PI) (10,000 events per sample) to assess dual stain positive cells in control and test samples. For flow cytometry, control and treated cells stained only with single fluorescent stains were also run separately to check individual staining patterns. Flow cytometry data were analyzed using FlowJo software and graphically represented. Scatter plots with ratio of fluorescence intensities through FL1-FITC filter and FL2-PE filter were plotted to understand cell membrane depolarization mechanism in treated cells. […]

[5] = system: ketoconazole-resistant Candida albicans ATCC 64124; test: Ultrastructure analysis (TEM) for cell wall thickness; settings: after 24 h; compared to control cells
Protocol: Ultrastructure analysis was performed as follows. After 24 h of respective treatments in YPD broth, C. albicans cells were initially fixed overnight with 500 μl 3% glutaraldehyde/0.1 M phosphate buffer; the fixative was changed to same fixative with 0.15% tannic acid for one hour. After three rinses in buffer, the specimens were post-fixed with 1% osmium tetroxide/0.1 M phosphate buffer for one hour and then rinsed multiple times with distilled water, before en bloc staining with 1% uranyl acetate in distilled water for one hour. After multiple rinses in distilled water, standard dehydration followed through a range of 70-100% ethanol, then infiltration with acetone, to 50:50 acetone and embedding resin for 48 hours. Specimens were then embedded with 100% resin (Embed 812, Electron Microscopy Sciences, Hatfield, PA) and polymerized overnight. Sections were cut, 80-85 nm and placed on copper mesh grids and viewed on Transmission Electron Microscope (TEM) (ThermoFisher, Tecnai Spirit, Hillsoboro OR) and images taken with CCD camera (Advanced Microscopy Techniques Danvers MA). Analysis of cell wall thickness was done with TEM images using ImageJ software.

[6] = system: ketoconazole-resistant Candida albicans ATCC 64124; test: Semi-quantitative analysis of cell wall carbohydrates chitin, beta glucan, mannan; settings: 24 h treatment
Protocol: Semi-quantitative analysis was performed for cell wall carbohydrates chitin, beta glucan, and mannan. After 24 h treatment, with dressings alone or in combination with ketoconazole, 1 ml yeast cells were washed once with 1 ml 1X PBS followed by chitin staining with Calcofluor White (Sigma Aldrich) (25 μg/ml) for 10 min; beta glucan staining with Aniline Blue (Anaspec) (0.05%) for 15 min; mannan staining with Concanavalin A-Texas Red conjugate (Life Technologies) (25 μg/ml) for 40 min. All stainings were performed under dark condition. Post-staining, cells were washed once with 1 ml 1X PBS and observed under 63X magnification. Microscopic images were used for measuring fluorescence intensities using ZEN blue software.

[7] = system: ketoconazole-resistant Candida albicans ATCC 64124; test: In vitro yeast to hyphae transition assay; settings: after 2 h incubation in hyphae-inducing medium
Protocol: Transition of C. albicans from yeast form to hyphal form was studied with hyphae inducing conditions (YPD broth with 10% fetal bovine serum and incubation at 37° C., static condition). Cells were cultured in 5 ml hyphae-inducing medium, with or without dressings or ketoconazole. An aliquot of cells (1 ml) was taken from all treatment groups at 6 h and 24 h. Hyphal induction and elongation was monitored microscopically (63X) and imaged at 6 h and 24 h. For hyphal length measurements, aliquots were taken after 2 h in hyphae-inducing medium and images were captured at 20X magnification. Hyphal lengths were measured from these images using Accuview software (50 measurements per experimental group, six biological replicates).

[8] = system: ketoconazole-resistant Candida albicans ATCC 64124; test: Efflux pump activity by Nile Red accumulation assay; settings: within 30 min to 3 h of treatment; flow cytometry
Protocol: Three technical replicates were assayed for each experimental group; six biological replicates.

SMILES: CC(=O)N1CCN(c2ccc(OCC3COC(Cn4ccnc4)(c4ccc(Cl)cc4Cl)O3)cc2)CC1 (centres unmarked) [ketoconazole]
- planktonic growth measured by absorbance at 600 nm [1]: almost equivalent
- yeast growth in agar lawn assay [2]: reduction in growth
- FUN1 staining outcome (metabolic state, plasma membrane integrity) [3]: distinct intravacuolar structures
- effect on cell membrane depolarization / damage [4]: did not have any acute or prolonged effect
- change in cell wall thickness [5]: thick cell walls
- chitin content (Calcofluor white staining) [6]: increased chitin staining profile
- hyphal length measurements [7]: pseudohyphae formed
- Nile red accumulation / efflux pump activity [8]: increased efflux pump activity
